Common to all, as to test: NCI tumour cell line growth inhibition, 48 h
For assay [1], the system named is SK-MEL-5 melanoma.
Assay [2] relates to U251 CNS.
Assay [3] deals with SR leukemia.
The test system of assay [4] is IGROV1 ovarian.
Assay [5] has as its system SF-268 CNS.
Assay [6] has as its system LOX IMVI melanoma.
Assay [7] has as its system OVCAR-8 ovarian.
Assay [8] has as its system NCI-H226 lung.
The subject of assay [9] is HT29 colon.
Assay [10] deals with ACHN renal.

SMILES strings stand for the structures.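 Each compound was tested at five concentrations against cells in 96-well plates for 48 hours. Abbreviation: GI50, concentration required for 50% inhibition of growth. TGI marks complete inhibition of growth.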 Where a SMILES comes first, the peptide text is derived from it. [ ]: non-standard residue; d: D form. Bounds are passed on as bounds.

For the molecule `CCSc1nc(N)c2cnn(CC)c2n1`, the GI50 in [1] is 2.58 µM; in [2] it was 4.12 µM; in assay [3], 2.27 µM; in assay [4], 2.14 µM; in [5], 23.3 µM; in assay [6] it was 2.23 µM. For the same molecule, the GI50 in assay [7] was 3.21 µM; in [8] it was 3.41 µM. Besides, the TGI in assay [1] was 8.05 µM; in [2], 86 µM; in [3], 48.9 µM; in [4], 9.13 µM; in assay [5], 66.7 µM; in [6], 8 µM. The TGI in [7] stood at 19.4 µM; in [8], 30.9 µM.

`CN(C)Cc1cc(C(C)(C)C)cc(CN(C)C)c1O`: the TGI in assay [1], in assay [2], in assay [3], in assay [9], in [4] and in assay [10] was greater than 100 µM throughout. Besides, the TGI in assay [5], in [6] and in assay [7] was greater than 100 µM in each case.

With `CCCC(=O)OC(OC(=O)CCC)c1ccc([N+](=O)[O-])o1`, the TGI in assay [1] was greater than 100 µM; in assay [2] it was greater than 100 µM; in [3], 53.1 µM; in assay [9], 42.8 µM; in assay [4], 28.3 µM; in [10] it was 49.9 µM. In addition, the figures for the TGI in [5], in assay [6] and in assay [7] were greater than 100 µM, 58.5 µM and greater than 100 µM, respectively.

In the case of `COc1ccc(F)cc1-c1ccnc2[nH]c(C3=CCN(C4CCC(CC(=O)O)CC4)CC3)cc12` (stereo not given), the GI50 in assay [1] was 0.121 µM; in [2] it was 0.137 µM; in [3], 0.0295 µM; in assay [9] it was 0.234 µM; in assay [4], 0.168 µM; in [10] it was 0.243 µM. The GI50 in assay [5] is 0.144 µM; in assay [7] it was 0.288 µM. Further, the TGI is 0.389 µM in assay [1]; greater than 100 µM in assay [2]; greater than 100 µM in assay [3]; 3.93 µM in assay [9]; greater than 100 µM in [4]; greater than 100 µM in assay [10]. The TGI in [5] is 17.7 µM; in [7] it was greater than 100 µM.

As for `N#CC(C#N)C(c1ccccc1)c1ccccc1`, the TGI in assay [1], in [2], in [3], in [4], in [10] and in assay [5] was greater than 100 µM each time. Besides, the TGI in assay [6], in [7] and in [8] was greater than 100 µM each time.

For `CCOC(=O)C(=O)Nc1nc2ccc(C)cc2s1`, the TGI in [1], in [2], in assay [3], in assay [9], in assay [4] and in assay [10] was greater than 100 µM each time. In addition, the TGI in assay [5], in assay [7] and in [8] was greater than 100 µM each time.

Turning to `COC(=N)CCCl`, the TGI in assay [1], in assay [2], in assay [3], in [9], in [4] and in assay [10] was greater than 100 µM throughout. For the same molecule, the TGI in assay [5], in assay [7] and in [8] was greater than 100 µM each time.

Turning to `COc1ccc(C2C3=C(COC3=O)N(CCO)c3cc4c(cc32)CCC4)cc1` (stereo not given), the GI50 in [1] was 2.38 µM; in assay [2], 3.16 µM; in assay [9], 1.7 µM; in assay [4], 2.15 µM; in [10], 24 µM; in assay [5], 7.05 µM. Further, the GI50 in [6] is 3.1 µM; in assay [7], 14.2 µM; in assay [8], 21.4 µM. Also, the TGI in [1] was greater than 50 µM; in [2], greater than 50 µM; in assay [9] it was 24.9 µM; in [4], 18.4 µM; in assay [10], greater than 50 µM; in [5], greater than 50 µM. Besides, the TGI in assay [6], in assay [7] and in assay [8] was greater than 50 µM each time.

As for `CSCC[C@H](NC(=O)[C@@H](N)CC(N)=O)C(=O)N[C@@H](Cc1c[nH]c2ccccc12)C(=O)N[C@@H](CCC(N)=O)C(=O)N[C@@H](CCC(=O)O)C(=O)N[C@H](C(=O)NCC(=O)N[C@@H](CCCCN)C(=O)N[C@H](C)C(=O)O)C(C)C` (H-NMWQEVGK[dA]-OH), the TGI in [1], in assay [2], in [9], in assay [4], in assay [10] and in assay [5] was greater than 100 µM in each case. Further, the TGI in assay [6], in assay [7] and in [8] was greater than 100 µM throughout.

Consider `C/C(=N\Nc1n[nH]c(=S)n1N)c1c(O)cc(C)oc1=O`, for which the TGI in [2], in assay [3], in assay [9], in [10], in assay [5] and in [6] was greater than 100 µM in each case. Besides, the TGI in assay [7] and in assay [8] was greater than 100 µM each time.

Turning to `COc1cc([C@@H]2c3cc4c(cc3[C@@H](NCc3cccc(F)c3)C3COC(=O)[C@@H]32)OCO4)cc(OC)c1O` (stereo not given in full), the TGI in [1] was 17.9 µM; in assay [2], 7.11 µM; in [9], 29.5 µM; in assay [4], 17.5 µM; in assay [10], 4.61 µM; in assay [5], greater than 65 µM. For the same molecule, the figures for the TGI in assay [6], in assay [7] and in [8] were 16.3 µM, 25.3 µM and 6.55 µM, respectively.

For the molecule `CC/C(C)=C1\CCC(CN(C)C)C1=O` (stereo not given), the TGI was found to be 91.5 µM in [1]; 43.2 µM in assay [3]; 46.5 µM in assay [9]; 36.8 µM in assay [4]; 33.2 µM in [10]; 43.2 µM in assay [5]. Moreover, the values for the TGI in [6], in assay [7] and in assay [8] were 40.7 µM, 76.1 µM and greater than 100 µM, respectively.

The values are drawn from PubChem BioAssay (NCI).
